Source: publication PMC11420776 (RSC Advances, 2024)

How the values were obtained:
SF-268 (CNS cancer) = assay: NCI 60-cell one-dose antiproliferative screen; type: cell-based, human; conditions: one dose 10 μM
SN12C (renal cancer) = assay: NCI 60-cell one-dose antiproliferative screen; type: cell-based, human; conditions: one dose 10 μM
[1] = tested on: NCI-H460 (NSC lung cancer); assay: NCI 60-cell one-dose antiproliferative screen; type: cell-based, human; conditions: one dose 10 μM
CCRF-CEM (leukemia) = assay: NCI 60-cell one-dose antiproliferative screen; type: cell-based, human; conditions: one dose 10 μM
EKVX (NSC lung cancer) = assay: NCI 60-cell one-dose antiproliferative screen; type: cell-based, human; conditions: one dose 10 μM
[2] = tested on: NCI-H322M (NSC lung cancer); assay: NCI 60-cell one-dose antiproliferative screen; type: cell-based, human; conditions: one dose 10 μM
SF-539 (CNS cancer) = assay: NCI 60-cell one-dose antiproliferative screen; type: cell-based, human; conditions: one dose 10 μM
UACC-257 (melanoma) = assay: NCI 60-cell one-dose antiproliferative screen; type: cell-based, human; conditions: one dose 10 μM
RXF 393 (renal cancer) = assay: NCI 60-cell one-dose antiproliferative screen; type: cell-based, human; conditions: one dose 10 μM
SK-MEL-28 (melanoma) = assay: NCI 60-cell one-dose antiproliferative screen; type: cell-based, human; conditions: one dose 10 μM
SF-295 (CNS cancer) = assay: NCI 60-cell one-dose antiproliferative screen; type: cell-based, human; conditions: one dose 10 μM
[3] = tested on: NCI-H226 (NSC lung cancer); assay: NCI 60-cell one-dose antiproliferative screen; type: cell-based, human; conditions: one dose 10 μM
OVCAR-3 (ovarian cancer) = assay: NCI 60-cell one-dose antiproliferative screen; type: cell-based, human; conditions: one dose 10 μM
OVCAR-8 (ovarian cancer) = assay: NCI 60-cell one-dose antiproliferative screen; type: cell-based, human; conditions: one dose 10 μM
ACHN (renal cancer) = assay: NCI 60-cell one-dose antiproliferative screen; type: cell-based, human; conditions: one dose 10 μM
TK-10 (renal cancer) = assay: NCI 60-cell one-dose antiproliferative screen; type: cell-based, human; conditions: one dose 10 μM
COLO-205 (colon cancer) = assay: NCI 60-cell one-dose antiproliferative screen; type: cell-based, human; conditions: one dose 10 μM
KM12 (colon cancer) = assay: NCI 60-cell one-dose antiproliferative screen; type: cell-based, human; conditions: one dose 10 μM
HCT-15 (colon cancer) = assay: NCI 60-cell one-dose antiproliferative screen; type: cell-based, human; conditions: one dose 10 μM
SNB-19 (CNS cancer) = assay: NCI 60-cell one-dose antiproliferative screen; type: cell-based, human; conditions: one dose 10 μM
HCT-116 (colon cancer) = assay: NCI 60-cell one-dose antiproliferative screen; type: cell-based, human; conditions: one dose 10 μM
CAKI-1 (renal cancer) = assay: NCI 60-cell one-dose antiproliferative screen; type: cell-based, human; conditions: one dose 10 μM
A498 (renal cancer) = assay: NCI 60-cell one-dose antiproliferative screen; type: cell-based, human; conditions: one dose 10 μM
DU-145 (prostate cancer) = assay: NCI 60-cell one-dose antiproliferative screen; type: cell-based, human; conditions: one dose 10 μM
[4] = tested on: MDA-MB-468 (breast cancer); assay: NCI 60-cell one-dose antiproliferative screen; type: cell-based, human; conditions: one dose 10 μM
HOP-92 (NSC lung cancer) = assay: NCI 60-cell one-dose antiproliferative screen; type: cell-based, human; conditions: one dose 10 μM
[5] = tested on: NCI/ADR-RES (ovarian cancer); assay: NCI 60-cell one-dose antiproliferative screen; type: cell-based, human; conditions: one dose 10 μM
[6] = tested on: 60 human tumor cell lines; assay: NCI 60-cell one-dose antiproliferative screen, whole panel; type: cell-based; conditions: Homo sapiens, 60 cell, read-out: Mean inhibition (mean GI%)
RPMI-8226 (leukemia) = assay: NCI 60-cell one-dose antiproliferative screen; type: cell-based, human; conditions: one dose 10 μM
786-0 (renal cancer) = assay: NCI 60-cell one-dose antiproliferative screen; type: cell-based, human; conditions: one dose 10 μM
UACC-62 (melanoma) = assay: NCI 60-cell one-dose antiproliferative screen; type: cell-based, human; conditions: one dose 10 μM
SW-620 (colon cancer) = assay: NCI 60-cell one-dose antiproliferative screen; type: cell-based, human; conditions: one dose 10 μM
MALME-3M (melanoma) = assay: NCI 60-cell one-dose antiproliferative screen; type: cell-based, human; conditions: one dose 10 μM
T-47D (breast cancer) = assay: NCI 60-cell one-dose antiproliferative screen; type: cell-based, human; conditions: one dose 10 μM
SK-MEL-2 (melanoma) = assay: NCI 60-cell one-dose antiproliferative screen; type: cell-based, human; conditions: one dose 10 μM
LOX IMIV (melanoma) = assay: NCI 60-cell one-dose antiproliferative screen; type: cell-based, human; conditions: one dose 10 μM
[7] = tested on: NCI-H522 (NSC lung cancer); assay: NCI 60-cell one-dose antiproliferative screen; type: cell-based, human; conditions: one dose 10 μM
HS 578T (breast cancer) = assay: NCI 60-cell one-dose antiproliferative screen; type: cell-based, human; conditions: one dose 10 μM
SK-OV-3 (ovarian cancer) = assay: NCI 60-cell one-dose antiproliferative screen; type: cell-based, human; conditions: one dose 10 μM
MCF7 (breast cancer) = assay: NCI 60-cell one-dose antiproliferative screen; type: cell-based, human; conditions: one dose 10 μM
HT29 (colon cancer) = assay: NCI 60-cell one-dose antiproliferative screen; type: cell-based, human; conditions: one dose 10 μM
M14 (melanoma) = assay: NCI 60-cell one-dose antiproliferative screen; type: cell-based, human; conditions: one dose 10 μM
U251 (CNS cancer) = assay: NCI 60-cell one-dose antiproliferative screen; type: cell-based, human; conditions: one dose 10 μM
[8] = tested on: NCI-H23 (NSC lung cancer); assay: NCI 60-cell one-dose antiproliferative screen; type: cell-based, human; conditions: one dose 10 μM
SNB-75 (CNS cancer) = assay: NCI 60-cell one-dose antiproliferative screen; type: cell-based, human; conditions: one dose 10 μM
PC-3 (prostate cancer) = assay: NCI 60-cell one-dose antiproliferative screen; type: cell-based, human; conditions: one dose 10 μM
HCC-2998 (colon cancer) = assay: NCI 60-cell one-dose antiproliferative screen; type: cell-based, human; conditions: one dose 10 μM
IGROV1 (ovarian cancer) = assay: NCI 60-cell one-dose antiproliferative screen; type: cell-based, human; conditions: one dose 10 μM
UO-31 (renal cancer) = assay: NCI 60-cell one-dose antiproliferative screen; type: cell-based, human; conditions: one dose 10 μM
HOP-62 (NSC lung cancer) = assay: NCI 60-cell one-dose antiproliferative screen; type: cell-based, human; conditions: one dose 10 μM
MDA-MB-435 (melanoma) = assay: NCI 60-cell one-dose antiproliferative screen; type: cell-based, human; conditions: one dose 10 μM
OVCAR-4 (ovarian cancer) = assay: NCI 60-cell one-dose antiproliferative screen; type: cell-based, human; conditions: one dose 10 μM
[9] = tested on: MDA-MB-231/ATCC (breast cancer); assay: NCI 60-cell one-dose antiproliferative screen; type: cell-based, human; conditions: one dose 10 μM
[10] = tested on: A549/ATCC (NSC lung cancer); assay: NCI 60-cell one-dose antiproliferative screen; type: cell-based, human; conditions: one dose 10 μM
OVCAR-5 (ovarian cancer) = assay: NCI 60-cell one-dose antiproliferative screen; type: cell-based, human; conditions: one dose 10 μM

## CN(C)c1ccc(C=NNc2ccc3nnc(-c4ccccc4)n3n2)cc1 [Compound 4c, N,N-Dimethyl-4-((2-(3-phenyl-[1,2,4]triazolo[4,3-b]pyridazin-6-yl)hydrazono)methyl)aniline]
SF-268 (CNS cancer)
  GI%: 57.96%
SN12C (renal cancer)
  GI%: — (— GI% is below 15%)
[1]
  GI%: 18.89%
CCRF-CEM (leukemia)
  GI%: — (— GI% is below 15%)
EKVX (NSC lung cancer)
  GI%: 21.18%
[2]
  GI%: — (— GI% is below 15%)
SF-539 (CNS cancer)
  GI%: — (— GI% is below 15%)
UACC-257 (melanoma)
  GI%: — (— GI% is below 15%)
RXF 393 (renal cancer)
  GI%: 15.29%
SK-MEL-28 (melanoma)
  GI%: — (— GI% is below 15%)
SF-295 (CNS cancer)
  GI%: — (— GI% is below 15%)
[3]
  GI%: — (— GI% is below 15%)
OVCAR-3 (ovarian cancer)
  GI%: 34.65%
OVCAR-8 (ovarian cancer)
  GI%: 57.57%
ACHN (renal cancer)
  GI%: 21.61%
TK-10 (renal cancer)
  GI%: — (— GI% is below 15%)
COLO-205 (colon cancer)
  GI%: — (— GI% is below 15%)
KM12 (colon cancer)
  GI%: 28.28%
HCT-15 (colon cancer)
  GI%: 19.56%
SNB-19 (CNS cancer)
  GI%: 30.50%
HCT-116 (colon cancer)
  GI%: — (— GI% is below 15%)
CAKI-1 (renal cancer)
  GI%: 32.25%
A498 (renal cancer)
  GI%: — (— GI% is below 15%)
DU-145 (prostate cancer)
  GI%: 26.64%
[4]
  GI%: — (— GI% is below 15%)
HOP-92 (NSC lung cancer)
  GI%: 29.78%
[5]
  GI%: 55.19%
[6]
  inhibition at 10 µM: 17.7%
RPMI-8226 (leukemia)
  GI%: — (— GI% is below 15%)
786-0 (renal cancer)
  GI%: 18.27%
UACC-62 (melanoma)
  GI%: — (— GI% is below 15%)
SW-620 (colon cancer)
  GI%: — (— GI% is below 15%)
MALME-3M (melanoma)
  GI%: — (— GI% is below 15%)
T-47D (breast cancer)
  GI%: 22.66%
SK-MEL-2 (melanoma)
  GI%: — (— GI% is below 15%)
LOX IMIV (melanoma)
  GI%: 62.55%
[7]
  GI%: 40.80%
HS 578T (breast cancer)
  GI%: 33.19%
SK-OV-3 (ovarian cancer)
  GI%: — (— GI% is below 15%)
MCF7 (breast cancer)
  GI%: 34.47%
HT29 (colon cancer)
  GI%: — (— GI% is below 15%)
M14 (melanoma)
  GI%: — (— GI% is below 15%)
U251 (CNS cancer)
  GI%: 24.58%
[8]
  GI%: 38.62%
SNB-75 (CNS cancer)
  GI%: 65.40%
PC-3 (prostate cancer)
  GI%: 18.94%
HCC-2998 (colon cancer)
  GI%: — (— GI% is below 15%)
IGROV1 (ovarian cancer)
  GI%: — (— GI% is below 15%)
UO-31 (renal cancer)
  GI%: 18.89%
HOP-62 (NSC lung cancer)
  GI%: — (— GI% is below 15%)
MDA-MB-435 (melanoma)
  GI%: — (— GI% is below 15%)
OVCAR-4 (ovarian cancer)
  GI%: 41.36%
[9]
  GI%: — (— GI% is below 15%)
[10]
  GI%: — (— GI% is below 15%)
OVCAR-5 (ovarian cancer)
  GI%: — (— GI% is below 15%)

## Cc1ccc(-c2nnc3ccc(NN=Cc4ccccc4)nn23)cc1 [Compound 4d, 6-(2-Benzylidenehydrazinyl)-3-(p-tolyl)-[1,2,4]triazolo[4,3-b]pyridazine]
SF-268 (CNS cancer)
  GI%: 42.23%
SN12C (renal cancer)
  GI%: — (— GI% is below 15%)
[1]
  GI%: 31.51%
CCRF-CEM (leukemia)
  GI%: — (— GI% is below 15%)
EKVX (NSC lung cancer)
  GI%: 23.07%
[2]
  GI%: — (— GI% is below 15%)
SF-539 (CNS cancer)
  GI%: 19.19%
UACC-257 (melanoma)
  GI%: — (— GI% is below 15%)
RXF 393 (renal cancer)
  GI%: — (— GI% is below 15%)
SK-MEL-28 (melanoma)
  GI%: — (— GI% is below 15%)
SF-295 (CNS cancer)
  GI%: 47.66%
[3]
  GI%: — (— GI% is below 15%)
OVCAR-3 (ovarian cancer)
  GI%: 69.65%
OVCAR-8 (ovarian cancer)
  GI%: — (— GI% is below 15%)
ACHN (renal cancer)
  GI%: — (— GI% is below 15%)
TK-10 (renal cancer)
  GI%: — (— GI% is below 15%)
COLO-205 (colon cancer)
  GI%: — (— GI% is below 15%)
KM12 (colon cancer)
  GI%: 42.77%
HCT-15 (colon cancer)
  GI%: 30.81%
SNB-19 (CNS cancer)
  GI%: — (— GI% is below 15%)
HCT-116 (colon cancer)
  GI%: — (— GI% is below 15%)
CAKI-1 (renal cancer)
  GI%: 16.69%
A498 (renal cancer)
  GI%: — (— GI% is below 15%)
DU-145 (prostate cancer)
  GI%: 24.06%
[4]
  GI%: — (— GI% is below 15%)
HOP-92 (NSC lung cancer)
  GI%: 29.46%
[5]
  GI%: 15.93%
[6]
  inhibition at 10 µM: 18.3%
RPMI-8226 (leukemia)
  GI%: 19.37%
786-0 (renal cancer)
  GI%: — (— GI% is below 15%)
UACC-62 (melanoma)
  GI%: — (— GI% is below 15%)
SW-620 (colon cancer)
  GI%: — (— GI% is below 15%)
MALME-3M (melanoma)
  GI%: — (— GI% is below 15%)
T-47D (breast cancer)
  GI%: — (— GI% is below 15%)
SK-MEL-2 (melanoma)
  GI%: — (— GI% is below 15%)
LOX IMIV (melanoma)
  GI%: 52.47%
[7]
  GI%: — (— GI% is below 15%)
HS 578T (breast cancer)
  GI%: 53.45%
SK-OV-3 (ovarian cancer)
  GI%: — (— GI% is below 15%)
MCF7 (breast cancer)
  GI%: 52.06%
HT29 (colon cancer)
  GI%: — (— GI% is below 15%)
M14 (melanoma)
  GI%: 32.66%
U251 (CNS cancer)
  GI%: 24.9%
[8]
  GI%: 39.55%
SNB-75 (CNS cancer)
  GI%: >100%
PC-3 (prostate cancer)
  GI%: — (— GI% is below 15%)
HCC-2998 (colon cancer)
  GI%: — (— GI% is below 15%)
IGROV1 (ovarian cancer)
  GI%: — (— GI% is below 15%)
UO-31 (renal cancer)
  GI%: 15.52%
HOP-62 (NSC lung cancer)
  GI%: — (— GI% is below 15%)
MDA-MB-435 (melanoma)
  GI%: 23.87%
OVCAR-4 (ovarian cancer)
  GI%: 30.86%
[9]
  GI%: — (— GI% is below 15%)
[10]
  GI%: — (— GI% is below 15%)
OVCAR-5 (ovarian cancer)
  GI%: — (— GI% is below 15%)
